Results published in patent US20230248741A1, “Compositions and Methods for Lowering Triglycerides in a Subject with Reduced Kidney Function and Diabetes Mellitus” (Amarin Pharmaceuticals Ireland Limited, priority 2018, published 2023).

Legend:
[1] = tested on: patients with fasting TG ≥200 and <500 mg/dl despite statin therapy; test: ANCHOR study, entire population: fasting TG; format: in vivo, human; conditions: 4 g/day
Protocol: A multi-center, placebo-controlled, randomized, double-blind, 12-week study is performed to evaluate the efficacy and safety of >96% E-EPA in patients with fasting triglyceride levels ≥200 mg/dl and <500 mg/dl despite statin therapy (the mean of two qualifying entry values needs to be ≥185 mg/dl and at least one of the values needs to be ≥200 mg/dl). The primary objective of the study is to determine the efficacy of >96% E-EPA 2 g daily and 4 g daily, compared to placebo, in lowering fasting TG levels in patients with high risk for cardiovascular disease and with fasting TG levels ≥200 mg/dL and <500 mg/dL, despite treatment to LDL-C goal on statin therapy.
The primary efficacy variable for the double-blind treatment period is percent change in TG from baseline to Week 12 endpoint. […]

[2] = tested on: patients with diabetes mellitus and eGFR <90 mL/min/1.73 m^2 for ≥3 months; test: ANCHOR post-hoc (diabetes mellitus, eGFR <90): adverse events and renal parameters; format: in vivo, human
Protocol: Safety assessments will include adverse events, clinical laboratory measurements (chemistry, hematology, and urinalysis), 12-lead electrocardiograms (ECGs), vital signs, and physical examinations.
CVD-related (e.g., atherogenic) parameters were analyzed in a post-hoc study of 198 patients from the multi-center, placebo-controlled, randomized double-blind, 12-week study described in Example 1. These 198 patients have reduced kidney reduced function (e.g., eGFR<90 mL/min/1.73 m^2 for ≥3 months) and diabetes mellitus.
In this study, 6 patients in the placebo group discontinued (i.e., withdrawal with consent [n=2]; adverse event [n=2]; death [n=1]; other reason [n=1] and 4 patients from the 4 g/day group discontinued (i.e., adverse event [n=3] and other reason [n=1]). The death in the placebo group was due to myocardial infarction and not considered to be assigned to the investigational agent.

## CC/C=C\C/C=C\C/C=C\C/C=C\C/C=C\CCCC(=O)OCC [E-EPA, ethyl eicosapentaenoate]
[1]
  median TGs reduction from baseline: −21.5%
[2]; 4 g/day
  renal function: no negative impact on renal function
[2]; 4 g/day (n = 100)
  Patients With TEAEs: Any TEAE: 49 (49.0) n (%)
  Patients With TEAEs: Arthralgia: 1 (1.0) n (%)
  Patients With TEAEs: Diarrhea: 5 (5.0) n (%)
  Patients With TEAEs: Nasopharyngitis: 1 (1.0) n (%)
  Patients With TEAEs: Nausea: 3 (3.0) n (%)
[2]; 4 g/day group, 4 discontinued in total
  patients discontinued due to adverse event: 3 n
[2]; 4 g/day, before 0.9 mg/dL, no significant change
  serum creatinine after 12 weeks: 0.9 mg/dL
[2]; 4 g/day, before 18 mg/dL, no significant change
  BUN after 12 weeks: 18 mg/dL
[2]; 4 g/day, before 4.5 g/dL, no significant change
  albumin after 12 weeks: 4.5 g/dL
[2]; 4 g/day, before 75.4, no significant change
  eGFR after 12 weeks: 79.1 mL/min/1.73 m^2
